Patent publication US20180296663A1 (priority 2015, published 2018)

Assays:
[1] = system: CD4+ T cells; set-up: species or system BALB/c mice; details: mouse, in vivo
[2] = system: CD8+ T cells; set-up: species or system Balb/c mice; details: mouse, in vivo

## Nc1nc2c(ncn2[C@@H]2O[C@@H]3COP(=O)(O)O[C@H]4[C@@H](O)[C@H](n5cnc6c(=O)[nH]c(N)nc65)O[C@@H]4COP(=O)(O)O[C@H]3[C@H]2O)c(=O)[nH]1 [c-di-GMP, cyclic diguanylate monophosphate]
[1]
  frequencies of HA-specific IFN-γ+/TNF+ CD4+ T cells: higher frequencies
  frequencies of HA-specific IFN-γ+/TNF+CD4+ T cells: higher frequencies

## HMGB1: high mobility group protein (HMGB) compound, which may act as an endogenous immunomodulator
[2]
  number of IFNγ/TNF double-positive multifunctional CD8+ T cells in the spleen: significant increase
